This assay has as its target T1, IRAK4 (Homo sapiens, UniProt Q9NWZ3).
T1 construct: endogenous in cells; host or cells: Karpas299
T1 sequence (Q9NWZ3 1-460): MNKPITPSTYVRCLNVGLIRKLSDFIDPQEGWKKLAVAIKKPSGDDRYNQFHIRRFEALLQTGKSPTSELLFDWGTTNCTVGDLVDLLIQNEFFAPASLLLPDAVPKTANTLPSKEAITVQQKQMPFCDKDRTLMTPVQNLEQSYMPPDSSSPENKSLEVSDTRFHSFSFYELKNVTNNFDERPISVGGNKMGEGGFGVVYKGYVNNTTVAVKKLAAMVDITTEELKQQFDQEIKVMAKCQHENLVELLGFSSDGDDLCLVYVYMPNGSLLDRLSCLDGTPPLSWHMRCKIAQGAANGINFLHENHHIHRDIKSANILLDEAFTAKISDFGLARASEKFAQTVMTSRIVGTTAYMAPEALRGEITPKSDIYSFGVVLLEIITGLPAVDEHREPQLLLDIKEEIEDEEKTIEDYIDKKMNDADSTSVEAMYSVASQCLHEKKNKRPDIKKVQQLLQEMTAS
As to the kind of experiment: IRAK4 Degradation Assay (Karpas299, HTRF/TR-FRET). In kind it is cell-based. To be noted: Karpas-299 cells, 24 h treatment; for Dmax: maximum percentage of degradation, read-out: IRAK4 in Karpas-299 (24 h) Dmax (%); for DC50: read-out: IRAK4 in Karpas-299 (24 h) DC50. In short, it runs like this: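 Compound potency as DC50 (IC50) came from four-parameter fits of percent IRAK4 degradation. IRAK4 was measured by HTRF (665/620 nm) in lysates of Karpas299 cells seeded at 0.2 million per well. Cells had been treated with compound dilutions for 5 or 24 h.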

For `CC(C)(O)c1cc2nn([C@H]3CC[C@H](N4CCN(C(=O)N5CCN(c6cc(F)c([C@H]7CCC(=O)NC7=O)c(F)c6)CC5)CC4)CC3)cc2cc1NC(=O)c1ccc2cc(C#N)cnn12` [Example 225, 3-cyano-N-(2-((1r,4r)-4-(4-(4-(4-((R)-2,6-dioxopiperidin-3-yl)-3,5-difluorophenyl)piperazine-1-carbonyl)piperazin-1-yl)cyclohexyl)-6-(2-hydroxypropan-2-yl)-2H-indazol-5-yl)pyrrolo[1,2-b]pyridazine-7-carboxamide], the Dmax was 97% and the DC50 was 1 nM.

Turning to `CC(C)(O)c1cc2nn(C3CCN([C@H]4CCN(C(=O)C5CN(c6cc(F)c([C@H]7CCC(=O)NC7=O)c(F)c6)C5)CC4(F)F)CC3)cc2cc1NC(=O)c1ccc2cc(C#N)cnn12` [Example 287, 3-cyano-N-(2-((S)-1′-(1-(4-((R)-2,6-dioxopiperidin-3-yl)-3,5-difluorophenyl)azetidine-3-carbonyl)-3′,3′-difluoro-[1,4′-bipiperidin]-4-yl)-6-(2-hydroxypropan-2-yl)-2H-indazol-5-yl)pyrrolo[1,2-b]pyridazine-7-carboxamide], the Dmax turned out to be 94% and the DC50 worked out at 1.9 nM.

Turning to `CC(C)(O)c1cc2nn(C3CCN([C@@H]4CCN(C(=O)C5CN(c6cc(F)c([C@H]7CCC(=O)NC7=O)c(F)c6)C5)CC4(F)F)CC3)cc2cc1NC(=O)c1ccc2cc(C#N)cnn12` [Example 288, 3-cyano-N-(2-((R)-1′-(1-(4-((R)-2,6-dioxopiperidin-3-yl)-3,5-difluorophenyl)azetidine-3-carbonyl)-3′,3′-difluoro-[1,4′-bipiperidin]-4-yl)-6-(2-hydroxypropan-2-yl)-2H-indazol-5-yl)pyrrolo[1,2-b]pyridazine-7-carboxamide], the Dmax was 96% and the DC50 stood at 2.3 nM.

Turning to `CC(C)(O)c1cc2nn([C@H]3CC[C@H](N4CCN([C@H]5CCN(c6ccc(N7CCC(=O)NC7=O)cc6)C5)CC4)CC3)cc2cc1NC(=O)c1ccc2cc(C#N)cnn12` [Example 295, 3-cyano-N-(2-((1S,4r)-4-(4-((S)-1-(4-(2,4-dioxotetrahydropyrimidin-1(2H)-yl)phenyl)pyrrolidin-3-yl)piperazin-1-yl)cyclohexyl)-6-(2-hydroxypropan-2-yl)-2H-indazol-5-yl)pyrrolo[1,2-b]pyridazine-7-carboxamide], the Dmax is 87% and the DC50 is 16 nM.

For the compound `CC(C)(O)c1cc2nn([C@H]3C[C@H](N4CCN(C5CN(c6cc(F)c([C@H]7CCC(=O)NC7=O)c(F)c6)C5)CC4)C3)cc2cc1NC(=O)c1ccc2cc(C#N)cnn12` [Example 331, 3-cyano-N-(2-((1R,3r)-3-(4-(1-(4-((R)-2,6-dioxopiperidin-3-yl)-3,5-difluorophenyl)azetidin-3-yl)piperazin-1-yl)cyclobutyl)-6-(2-hydroxypropan-2-yl)-2H-indazol-5-yl)pyrrolo[1,2-b]pyridazine-7-carboxamide], the Dmax was 92% and the DC50 amounted to 3.7 nM.

As for `N#Cc1cnn2c(C(=O)Nc3cc4cn([C@H]5CC[C@H](N6CCN(C(=O)C7CN(c8cc(F)c([C@H]9CCC(=O)NC9=O)c(F)c8)C7)CC6)CC5)nc4c4c3OC(F)(F)O4)ccc2c1` [Example 384, 3-cyano-N-(2-((1r,4r)-4-(4-(1-(4-((R)-2,6-dioxopiperidin-3-yl)-3,5-difluorophenyl)azetidine-3-carbonyl)piperazin-1-yl)cyclohexyl)-7,7-difluoro-2H-[1,3]dioxolo[4,5-g]indazol-5-yl)pyrrolo[1,2-b]pyridazine-7-carboxamide], the Dmax was determined as 97% and the DC50 turned out to be 2.2 nM.

Consider `N#Cc1cnn2c(C(=O)Nc3cc4cn([C@H]5CC[C@H](N6CCN(C7CN(c8cc(F)c([C@H]9CCC(=O)NC9=O)c(F)c8)C7)CC6)CC5)nc4c4c3OC(F)(F)O4)ccc2c1` [Example 385, 3-cyano-N-(2-((1R,4r)-4-(4-(1-(4-((R)-2,6-dioxopiperidin-3-yl)-3,5-difluorophenyl)azetidin-3-yl)piperazin-1-yl)cyclohexyl)-7,7-difluoro-2H-[1,3]dioxolo[4,5-g]indazol-5-yl)pyrrolo[1,2-b]pyridazine-7-carboxamide], for which the Dmax is 91% and the half-maximal degradation concentration (DC50) was determined as 4.8 nM.

Consider `N#Cc1cnn2c(C(=O)Nc3cc4cn([C@H]5CC[C@H](N6CCN(CCc7cc(F)c([C@H]8CCC(=O)NC8=O)c(F)c7)CC6)CC5)nc4c4c3OC(F)(F)O4)ccc2c1` [Example 386, 3-cyano-N-(2-((1R,4r)-4-(4-(4-((R)-2,6-dioxopiperidin-3-yl)-3,5-difluorophenethyl)piperazin-1-yl)cyclohexyl)-7,7-difluoro-2H-[1,3]dioxolo[4,5-g]indazol-5-yl)pyrrolo[1,2-b]pyridazine-7-carboxamide], for which the Dmax is 94% and the DC50 was 3.2 nM.

As for `CC(C)(O)c1cc2nn([C@H]3CC[C@H](N4CCN(C5CCN(c6cc(F)c([C@H]7CCC(=O)NC7=O)c(F)c6)CC5)CC4)CC3)cc2cc1NC(=O)c1coc2cccnc12` [Example 405, N-(2-((1r,4r)-4-(4-(1-(4-((R)-2,6-dioxopiperidin-3-yl)-3,5-difluorophenyl)piperidin-4-yl)piperazin-1-yl)cyclohexyl)-6-(2-hydroxypropan-2-yl)-2H-indazol-5-yl)furo[3,2-b]pyridine-3-carboxamide], the Dmax was found to be 96% and the DC50 turned out to be 0.9 nM.

As to `CC(C)(O)c1cc2nn([C@H]3CC[C@H](N4CCN(C(=O)C5CN(c6cc(F)c([C@H]7CCC(=O)NC7=O)c(F)c6)C5)CC4)CC3)cc2cc1NC(=O)c1cnn2cc(C#N)cnc12` [Example 411, 6-cyano-N-(2-((1r,4r)-4-(4-(1-(4-((R)-2,6-dioxopiperidin-3-yl)-3,5-difluorophenyl)azetidine-3-carbonyl)piperazin-1-yl)cyclohexyl)-6-(2-hydroxypropan-2-yl)-2H-indazol-5-yl)pyrazolo[1,5-a]pyrimidine-3-carboxamide], the Dmax was 9% and the DC50 is above 10000 nM.

On to `CC1(C)OC(c2ccc3cc(C#N)cnn23)=Nc2cc3cn(C4CCN(C5CCN(C(=O)[C@@H]6CCN(c7cc(F)c([C@H]8CCC(=O)NC8=O)c(F)c7)C6)CC5)CC4)nc3cc21` [Example 412, 7-(2-(1′-((R)-1-(4-((R)-2,6-dioxopiperidin-3-yl)-3,5-difluorophenyl)pyrrolidine-3-carbonyl)-[1,4′-bipiperidin]-4-yl)-8,8-dimethyl-2,8-dihydro-[1,3]oxazino[4,5-f]indazol-6-yl)pyrrolo[1,2-b]pyridazine-3-carbonitrile], for which the Dmax turned out to be 5% and the DC50 is above 10000 nM.

As for `CC(C)(O)c1cc2nn([C@H]3CC[C@H](N4CCN(CCc5cc(F)c([C@H]6CCC(=O)NC6=O)c(F)c5)CC4)CC3)cc2cc1NC(=O)c1ccn2cc(C#N)cnc12` [Example 413, 3-cyano-N-(2-((1R,4r)-4-(4-(4-((R)-2,6-dioxopiperidin-3-yl)-3,5-difluorophenethyl)piperazin-1-yl)cyclohexyl)-6-(2-hydroxypropan-2-yl)-2H-indazol-5-yl)pyrrolo[1,2-a]pyrimidine-8-carboxamide], the Dmax came out at 25% and the DC50 is above 1000 nM.

Consider `N#Cc1cnc2c(C(=O)Nc3ccc4nn([C@H]5CC[C@H](N6CCN(C7CN(c8cc(F)c([C@H]9CCC(=O)NC9=O)c(F)c8)C7)CC6)CC5)cc4c3)cnn2c1` [Example 424, 6-cyano-N-(2-((1R,4r)-4-(4-(1-(4-((R)-2,6-dioxopiperidin-3-yl)-3,5-difluorophenyl)azetidin-3-yl)piperazin-1-yl)cyclohexyl)-2H-indazol-5-yl)pyrazolo[1,5-a]pyrimidine-3-carboxamide], for which the Dmax was 42% and the DC50 was above 1000 nM.

For the compound `CC(C)(O)c1cc2nn([C@H]3CC[C@H](CN4CCN(C5CN(c6cc(F)c([C@H]7CCC(=O)NC7=O)c(F)c6)C5)CC4)CC3)cc2cc1NC(=O)c1csc(-c2cn[nH]c2)n1` [Example 433, N-(2-((1r,4r)-4-((4-(1-(4-((R)-2,6-dioxopiperidin-3-yl)-3,5-difluorophenyl)azetidin-3-yl)piperazin-1-yl)methyl)cyclohexyl)-6-(2-hydroxypropan-2-yl)-2H-indazol-5-yl)-2-(1H-pyrazol-4-yl)thiazole-4-carboxamide], the Dmax turned out to be 99% and the DC50 worked out at 0.2 nM.

Take `CC(C)(O)c1cc2nn([C@H]3CC[C@H](CN4CCN(C(=O)C5CN(c6cc(F)c([C@H]7CCC(=O)NC7=O)c(F)c6)C5)CC4)CC3)cc2cc1NC(=O)c1csc(-c2cn[nH]c2)n1` [Example 434, N-(2-((1r,4r)-4-((4-(1-(4-((R)-2,6-dioxopiperidin-3-yl)-3,5-difluorophenyl)azetidine-3-carbonyl)piperazin-1-yl)methyl)cyclohexyl)-6-(2-hydroxypropan-2-yl)-2H-indazol-5-yl)-2-(1H-pyrazol-4-yl)thiazole-4-carboxamide]: the Dmax stood at 97% and the half-maximal degradation concentration (DC50) came to 0.2 nM.

The record behind these values is patent publication US20250195513A1, “DEGRADATION OF IRAK4 BY CONJUGATION OF IRAK4 INHIBITORS WITH E3 LIGASE LIGAND AND METHODS OF USE” (BeiGene, Ltd., priority 2022, published 2025).
